Test results taken from patent publication US11918575B2, “PZA and cytochrome Bc1 inhibitor combination treatment” (priority 2017, dated 2024).
Values after ≈ are worked out from the molar mass of the structure shown.

What was measured:
[1] = system: Mycobacterium tuberculosis H37Rv; test: Mouse tuberculosis infection model, CFU counts in the lungs after treatment; assay type: in vivo; details: female Swiss mice infected i.v. with H37Rv; oral once daily 5 times/week for 4 weeks (day 12-37); necropsy day 41; BDQ 3 mg/kg, Q203 or Cpd X 20 mg/kg, PZA 150 mg/kg; cut off 1.10 = below detectable level
[2] = assay type: physicochemical
Method: All formulations prepared in 20% HP-β-CD, and used for 5 treatments (one week).
All formulations were solutions and stored at 4° C. during the study.
Stability of BDQ and Q203 in formulation was previously tested, for PZA and Cpd X the stability was tested after one week and found acceptable for both compounds

[3] = system: M. tuberculosis; details: cited from earlier work
[4] = system: M. tuberculosis H37Rv; details: strain M. tuberculosis H37Rv, inside macrophages; cited from earlier work

Compound | mean log10 (CFUs in the lungs) [1] [log10] | stability in formulation [2] | activity against replicating and non-replicating bacteria [3] | MIC50 [4] [nM]
COc1nc2ccc(Br)cc2cc1[C@@H](c1ccccc1)[C@@](O)(CCN(C)C)c1cccc2ccccc12 [BDQ, Bedaquiline] | 4.46 |  |  | 
CCc1nc2ccc(Cl)cn2c1C(=O)NCc1ccc(N2CC3(CCN(c4ccc(OC(F)(F)F)cc4)CC3)C2)cc1 [Cpd X] | 4.75 | acceptable |  | 
NC(=O)c1cnccn1 [PZA, Pyrazinamide] | 3.47 | acceptable |  | 
CCc1nc2ccc(Cl)cn2c1C(=O)NCc1ccc(N2CCC(c3ccc(OC(F)(F)F)cc3)CC2)cc1 [Q203] | 4.55 |  | highly active | 0.28 (≈ 0.156 ng/mL)
